Tests used:
TRPV1 = assay: Calcium imaging of capsaicin double-stimulated DRG neurons (TRPV1 sensitization); format: cell-based, murine; conditions: for effect on TRPV1 sensitization by LTB4 (100 nM or 1 μM), FIG. 3 legend: U73502 1 μM; for effect on TRPV1 sensitization by LTB4 (100 nM or 1 μM), FIG. 3 legend / effect on TRPV1 sensitization induced by 100 nM LTB4: CAY10583 400 nM; for effect on TRPV1 sensitization induced by 100 nM LTB4: U75302 1 μM, 2 minute pretreatment
Experimental: (A) DRG neurons were double stimulated with capsaicin (200 nM, 15 s each) and incubated with either vehicle or LTB4 (100 nM) for two minutes prior to the second capsaicin stimulation. (B) Dose-dependent difference in ratio between the first and the second capsaicin response using the same protocol as described in (A). Data represent the mean±SEM of the following number of neurons (n=20-86); ANOVA Kruskal-Wallis test; Dunn's multiple comparisons test *p<0.05, ****p<0.0001 student's t-test.
FIG. 3: BLT1 mediates TRPV1-sensitization and BLT2 mediates TRPV1-desensitization by LTB4. (A) DRG neurons were double stimulated with capsaicin (200 nM, 15 s each) and incubated with either vehicle or the indicated compounds for two minutes prior to the second capsaicin stimulation. […] Data represent mean±SEM 20-105 cells. ANOVA Kruskal-Wallis test; Dunn's multiple comparisons test *p<0.05, **p<0.01, ****p<0.0001 student's t-test; n.s. not significant.
FIG. 4: BLT2 activation inhibits […] by EP4 and Bradykinin. (A) DRG neurons were double stimulated with capsaicin (200 nM, 15 s each) and incubated with either the EP4 agonist ONOae329 (500 nM) or with ONOae329 and CAY10583 (400 nM) together for two minutes prior to the second capsaicin stimulation. (B) Difference in ratio between the first and the second capsaicin response using the same protocol as described in panel A. Data represent the mean±SEM of the following number of neurons: 52 (vehicle), 109 (ONOae329), 106 (ONOae329+CAY10583); One-Way ANOVA, Dunn's multiple comparisons test; **p<0.0096. (C+D) same as panel A+B except that 500 nM bradykinin was used for TRPV1 sensitization. Data represent the mean±SEM of the following number of neurons: 33 (vehicle), 83 (bradykinin), 93 (bradykinin+CAY10583); One-Way ANOVA, Holm-Sidak's multiple comparisons test; *p=0.0126
Murine DRGs were dissected from spinal segments and directly transferred to ice cold HBSS with CaCl2 and MgCl2 (Invitrogen, Carsbad, Calif., USA). Next, isolated DRGs were incubated with collagenase/dispase (500 U/ml Collagenase; 2.5 U/ml Dispase) in neurobasal medium containing L-glutamine [2 mM] penicillin (100 U/ml), streptomycin (100 μg/ml), B-27 and gentamicin (50 μg/ml) (all from Invitrogen, Carlsbad, Calif., USA) at 37° C. for 75 min. After removal of the collagenase/dispase-solution, cells were washed twice with neurobasal medium containing 10% FCS and incubated for 10 min with 0.05% trypsin (Invitrogen, Carlsbad, Calif., USA). The washing steps were repeated and the cells were mechanically dissociated with a 1 ml Gilson pipette. Finally, the neurons were plated on poly-l-lysine (Sigma, Deisenhofen, Germany) coated glass cover slips and incubated with neurobasal medium containing L-glutamine [2 mM] penicillin (100 U/ml), streptomycin (100 μg/ml), B-27 and gentamicin (50 μg/ml) over night until assessment by calcium imaging.
Calcium-Imaging experiments were performed as published previously. Briefly, Leica Calcium-imaging setup was used, consisting of a Leica DMI 4000 b inverted microscope equipped with a DFC360 FX (CCD-) camera, Fura-2 filters and an N-Plan 10×/0.25 Ph1 objective (all from Leica Microsystems, Wetzlar, Germany). Images were taken every 2 seconds and processed with the LAS AF-software. For each experiment the inventors chose an area with large cell numbers and monitored 40-110 cells simultaneously. Calcium-Imaging experiments were performed using DRG-neurons 24-48 hours after preparation. […]

mice = assay: Thermal pain thresholds after intraplantar injection (Hargreaves, radiant heat); format: in vivo; conditions: CAY10583 10 μl, 5 μM intraplantarly, compared to vehicle
Experimental: FIG. 5: BLT2 activation decreases thermal pain thresholds in mice. CAY10583 (10 μl, 5 μM) or vehicle was administered intraplantarly. Thermal thresholds were determined at the indicated time points. Data are presented as mean±S.E.M. of 6 animals. Two way ANOVA/Bonferroni *P<0.05, **P<0.005, ****P<0.0005.
All animal experiments were performed according to the recommendations in the Guide for the Care and Use of Laboratory Animals of the National Institutes of Health and approved by the local Ethics Committees for Animal Research (Darmstadt). For all behavioral experiments the inventors used only 6-12 weeks old male C57BL/6N mice purchased from commercial breeding companies (Charles River, Sulzfeld, Germany, Janvier, Le Geneset-Saint-Isle, FR). To compare mechanical thresholds the inventors used age and sex matched littermates as control.
For the determination of mechanical allodynia or thermal hypersensitivity, mice were kept in test cages on an elevated grid for at least 2 hours to allow accommodation. […] The non-injected and injected paws were measured alternately in intervals of 5-10 min. […]

[1] = DRG neurons, capsaicin 200 nM, LY2552833 10 μM

CCCCC/C=C\C[C@@H](O)/C=C/C=C/C=C\[C@@H](O)CCCC(=O)O [LTB4, Leucotriene (LT) B4]
TRPV1 sensitization in DRG neurons, dose dependence, FIG. 1 legend (TRPV1; DRG neurons, capsaicin 200 nM double stimulation): dose dependently sensitizes TRPV1
enhanced response (TRPV1 sensitization) at higher LTB4 concentrations (TRPV1; murine DRG neurons, 200-1000 nM LTB4 prior to second capsaicin stimulation): reduced
capsaicin-induced intracellular calcium increases (TRPV1; murine DRG neurons, preincubation with 100 nM LTB4 for two minutes prior to second capsaicin (200 nM) stimulation): doubled

CCCCC/C=C\C[C@@H](O)/C=C/c1cccc(C[C@@H](O)CCCCO)n1 [U75302, 6-(6-(3R-hydroxy-1E,5Z-undecadien-1-yl)-2-pyridinyl)-1,5S-hexanediol]
effect on TRPV1 sensitization by LTB4 (100 nM or 1 μM), FIG. 3 legend (TRPV1; DRG neurons, LY2552833 10 μM): reduced
effect on TRPV1 sensitization induced by 100 nM LTB4 (TRPV1; [1]): able to abolish

COCc1ccccc1CC[C@H](O)/C=C/[C@H]1[C@H](O)CC(=O)[C@@H]1SCCCSCC(=O)O [ONOae329]
sensitization of TRPV1 responses to capsaicin (TRPV1; murine DRG neurons, pretreatment with ONOae329 500 nM): strong sensitization

CCc1cc(C(C)=O)c(O)cc1OCCCCCC(C)(C)c1nn[nH]n1 [LY2552833]
effect on TRPV1 sensitization by LTB4 (100 nM or 1 μM), FIG. 3 legend (TRPV1; DRG neurons, LY2552833 10 μM): increases TRPV1 sensitization
effect on TRPV1 sensitization by 1000 nM LTB4 (TRPV1; [1]): increased
effect on TRPV1 sensitization induced by 100 nM LTB4 (TRPV1; [1]): no significant effect

CCCCC(=O)N(Cc1ccc(-c2ccccc2C(=O)O)cc1)c1ccccc1 [CAY10583, 4′-[[(1-oxopentyl)phenylamino]methyl]-[1,1′-biphenyl]-2-carboxylic acid]
effect on bradykinin-induced sensitization of TRPV1 through PKC (TRPV1; DRG neurons, 500 nM bradykinin with CAY10583 400 nM): significantly decreased
effect on TRPV1 sensitization by LTB4 (100 nM or 1 μM), FIG. 3 legend (TRPV1; DRG neurons, LY2552833 10 μM): reduced
effect by itself on capsaicin-induced TRPV1 activation (TRPV1; DRG neurons, capsaicin 200 nM, CAY10583 400 nM alone): no effect
effect on TRPV1 sensitization induced by 100 nM LTB4 (TRPV1; [1]): abolished
effect on ONOae329-induced TRPV1 sensitization (TRPV1; murine DRG neurons, ONOae329 500 nM together with CAY10583 400 nM): abolished
thermal pain thresholds (mice): significantly increase

Reference: patent US20170281575A1, “BLT2 AGONISTS FOR THE TREATMENT OF PAIN” (FRAUNHOFER-GESELLSCHAFT ZUR FÖERDERUNG DER ANGEWANDTEN …, priority 2014, published 2017)
